Where two headings read alike, the source gives them in different places.
Key:
Assay type in all cases: cell-based
[1] = biological target: T1, α1β2γ2 GABAA receptor (β2 subunit) (Rattus norvegicus, UniProt P63138); assay: two-electrode voltage clamp, % IGABA at […] compound, GABA EC0.[…]
T1 construct: gene Gabrb2; recombinant α1β2γ2 receptor expressed in Xenopus laevis oocytes; with GABAA α1 (Gabra1) and γ2 (Gabrg2) subunits

[2] = biological target: T2, α1β1γ2 GABAA receptor (β1 subunit) (Rattus norvegicus, UniProt P15431); assay: two-electrode voltage clamp, potentiation of IGABA at GABA EC10-20
T2 construct: gene Gabrb1; recombinant α1β1γ2 receptor expressed in Xenopus laevis oocytes; with GABAA α1 (Gabra1) and γ2 (Gabrg2) subunits

[3] = biological target: T1, α1β2γ2 GABAA receptor (β2 subunit); assay: as above

T1 sequence (P63138 26-474): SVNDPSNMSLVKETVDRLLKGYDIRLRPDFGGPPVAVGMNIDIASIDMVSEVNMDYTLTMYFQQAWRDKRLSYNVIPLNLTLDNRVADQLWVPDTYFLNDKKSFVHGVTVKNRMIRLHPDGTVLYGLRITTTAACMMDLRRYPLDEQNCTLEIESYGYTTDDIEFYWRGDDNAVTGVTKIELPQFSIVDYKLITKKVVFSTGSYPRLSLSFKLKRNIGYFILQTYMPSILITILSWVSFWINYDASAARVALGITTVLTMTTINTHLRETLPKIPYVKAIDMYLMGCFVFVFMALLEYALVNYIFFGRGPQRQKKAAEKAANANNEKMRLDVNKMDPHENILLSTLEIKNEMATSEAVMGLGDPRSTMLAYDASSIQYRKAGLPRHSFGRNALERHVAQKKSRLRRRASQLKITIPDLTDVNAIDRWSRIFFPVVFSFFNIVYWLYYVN
T1 sequence (P62813 28-455 partner): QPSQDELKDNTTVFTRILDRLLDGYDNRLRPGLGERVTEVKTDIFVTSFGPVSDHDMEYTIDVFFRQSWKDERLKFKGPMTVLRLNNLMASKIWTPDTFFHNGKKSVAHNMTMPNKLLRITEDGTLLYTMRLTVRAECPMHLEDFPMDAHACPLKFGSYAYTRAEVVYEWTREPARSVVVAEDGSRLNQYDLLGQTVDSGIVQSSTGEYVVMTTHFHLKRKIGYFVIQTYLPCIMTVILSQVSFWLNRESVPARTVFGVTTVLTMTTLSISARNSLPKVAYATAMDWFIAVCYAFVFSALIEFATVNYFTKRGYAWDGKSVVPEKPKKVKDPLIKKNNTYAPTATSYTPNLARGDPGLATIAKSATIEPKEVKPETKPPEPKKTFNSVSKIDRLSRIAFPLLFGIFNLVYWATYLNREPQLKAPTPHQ
T1 sequence (P18508 39-466 partner): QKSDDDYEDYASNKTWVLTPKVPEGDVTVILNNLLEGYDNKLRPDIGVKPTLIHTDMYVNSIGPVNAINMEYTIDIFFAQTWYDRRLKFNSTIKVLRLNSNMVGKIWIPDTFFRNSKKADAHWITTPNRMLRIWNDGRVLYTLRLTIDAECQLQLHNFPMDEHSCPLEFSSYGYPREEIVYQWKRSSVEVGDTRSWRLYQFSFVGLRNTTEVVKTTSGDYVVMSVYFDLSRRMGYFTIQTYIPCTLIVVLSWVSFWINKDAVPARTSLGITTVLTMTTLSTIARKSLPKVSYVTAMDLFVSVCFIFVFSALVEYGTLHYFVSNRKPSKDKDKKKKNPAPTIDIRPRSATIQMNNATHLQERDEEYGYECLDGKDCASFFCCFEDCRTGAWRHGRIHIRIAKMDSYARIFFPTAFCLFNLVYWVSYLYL
T2 sequence (P15431 26-474): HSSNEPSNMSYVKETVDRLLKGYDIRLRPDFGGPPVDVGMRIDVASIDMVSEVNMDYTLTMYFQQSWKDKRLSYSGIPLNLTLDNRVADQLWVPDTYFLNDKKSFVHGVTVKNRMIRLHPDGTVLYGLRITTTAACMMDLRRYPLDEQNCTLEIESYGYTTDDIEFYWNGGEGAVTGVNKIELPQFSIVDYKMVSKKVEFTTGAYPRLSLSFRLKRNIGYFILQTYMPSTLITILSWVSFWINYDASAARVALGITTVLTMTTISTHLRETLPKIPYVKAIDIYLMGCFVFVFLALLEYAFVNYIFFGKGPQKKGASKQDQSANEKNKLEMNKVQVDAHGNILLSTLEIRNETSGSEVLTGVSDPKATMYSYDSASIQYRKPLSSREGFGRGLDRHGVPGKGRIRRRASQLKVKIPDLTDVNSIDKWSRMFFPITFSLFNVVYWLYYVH
T2 sequence (P62813 28-455 partner): as the sequence (P62813 28-455 partner) above
T2 sequence (P18508 39-466 partner): as the sequence (P18508 39-466 partner) above

SMILES	activation at 3 µM [1]	other results
C=CCc1ccc(O)c(-c2ccccc2C)c1 [8b]	207 ± 33%	–
C=CCc1ccc(O)c(-c2cccc(OC)c2)c1 [8f]	136 ± 32%	–
C=CCc1ccc(O)c(-c2ccc(OC)cc2)c1 [8g]	–	EC50 ([2]; read-out: EC50): 30 µM; EC50 ([3]; read-out: EC50): ~7 µM
C=CCc1ccc(O)c(-c2cccc(C(=O)OC)c2)c1 [8i]	406 ± 70%	–
C=CCc1ccc(O)c(-c2cc(CC=C)ccc2O)c1 [compound 1, magnolol]	338 ± 93%	–
C=CCc1ccc(O)c(-c2ccc(O)c(CC=C)c2)c1 [compound 2, honokiol]	–	EC50 [2]: 20 µM; EC50 [3]: 20 µM
